≈ marks a conversion by molar mass, not a printed value. Like-named read-outs stand apart in the source and are kept apart here.
Legend:
[1] = system: MRSA clinical isolates; assay: MIC by broth microdilution against multidrug-resistant MRSA clinical isolates; format: cell-based, Staphylococcus aureus; conditions: Staphylococcus aureus, MRSA, read-out: MIC against 8 MRSA strains
Procedure: (§1) Clinical MRSA isolates with multidrug resistance were obtained from the collection of the Research Institute of Antimicrobial Chemotherapy, Smolensk State Medical Academy.
The MICs were determined using a broth microdilution method according to [42]. Briefly, serial dilutions of the tested compounds in 50 µL of Mueller Hinton broth (BD) were prepared in 96-well microplates. The antibiotics vancomycin and linezolid (Sigma-Aldrich, St. Louis, MO, USA) were used as a positive control. Bacterial suspensions of the tested MRSA strains were prepared in the Mueller Hinton broth (BD) with a concentration 1 × 10^6 CFU/mL, and then 50 µL aliquots were added to the prepared microplates. The final concentrations of the antibiotics in the wells were 1, 0.5, 0.25, and 0.125 mg/L, for the tested compounds, and 2 mg/L for vancomycin and linezolid. Negative control (lack of bacterial cells) and growth control (lack of compound) wells were included in all plates. The microplates were incubated at 37 °C for 18 h. The growth was assessed visually after incubation, and the MIC was assumed as the lowest compound concentration at which a noticeable growth of the microorganisms was inhibited (no visible growth). All experiments were conducted in triplicate.

[2] = system: MRSA clinical isolates; assay: Antibiotic susceptibility profile of MRSA clinical isolates (EUCAST breakpoints); format: cell-based, Staphylococcus aureus
Text: as §1

`CC(=O)NC[C@H]1CN(c2ccc(N3CCOCC3)c(F)c2)C(=O)O1` [Linezolid, linezolid] showed an MIC ([1]; Figure 6, MRSA strain 2) of 2 µg/mL (≈ 5.93 µM), an MIC ([1]; Figure 6, MRSA strain 7) of 2 µg/mL (≈ 5.93 µM) and an MIC ([1]; Figure 6, MRSA strain 8) of 2 µg/mL (≈ 5.93 µM). For the same molecule, the MIC ([1]; Figure 6, MRSA strain 9) was 2 µg/mL (≈ 5.93 µM), the MIC ([1]; Figure 6, MRSA strain 13) was 2 µg/mL (≈ 5.93 µM) and the MIC ([1]; Figure 6, MRSA strain 21) was 2 µg/mL (≈ 5.93 µM). For the same molecule, the MIC ([1]; Figure 6, MRSA strain 48) was 2 µg/mL (≈ 5.93 µM), the MIC ([1]; Figure 6, MRSA strain 50) was 2 µg/mL (≈ 5.93 µM) and the Drug sensibility profile ([2]; MRSA strain 1) was “S”. The Drug sensibility profile ([2]; MRSA strain 2) was “S”, the Drug sensibility profile ([2]; MRSA strain 3) was “S” and the Drug sensibility profile ([2]; MRSA strain 4) was “S”. For the same molecule, the Drug sensibility profile ([2]; MRSA strain 5) was “S”, the Drug sensibility profile ([2]; MRSA strain 6) was “S” and the Drug sensibility profile ([2]; MRSA strain 7) was “S”. The Drug sensibility profile ([2]; MRSA strain 8) was “S”, the Drug sensibility profile ([2]; MRSA strain 9) was “S” and the Drug sensibility profile ([2]; MRSA strain 10) was “S”. The Drug sensibility profile ([2]; MRSA strain 12) was “S”, the Drug sensibility profile ([2]; MRSA strain 13) was “S” and the Drug sensibility profile ([2]; MRSA strain 14) was “S”. The Drug sensibility profile ([2]; MRSA strain 15) was “S”, the Drug sensibility profile ([2]; MRSA strain 16) was “S” and the Drug sensibility profile ([2]; MRSA strain 17) was “S”. The Drug sensibility profile ([2]; MRSA strain 18) was “S”, the Drug sensibility profile ([2]; MRSA strain 21) was “S” and the Drug sensibility profile ([2]; MRSA strain 23) was “S”. For the same molecule, the Drug sensibility profile ([2]; MRSA strain 24) was “S”, the Drug sensibility profile ([2]; MRSA strain 25) was “S” and the Drug sensibility profile ([2]; MRSA strain 26) was “S”. The Drug sensibility profile ([2]; MRSA strain 27) was “S”, the Drug sensibility profile ([2]; MRSA strain 28) was “S” and the Drug sensibility profile ([2]; MRSA strain 29) was “S”. The Drug sensibility profile ([2]; MRSA strain 30) was “S”, the Drug sensibility profile ([2]; MRSA strain 31) was “S” and the Drug sensibility profile ([2]; MRSA strain 34) was “S”. For the same molecule, the Drug sensibility profile ([2]; MRSA strain 35) was “S”, the Drug sensibility profile ([2]; MRSA strain 36) was “S” and the Drug sensibility profile ([2]; MRSA strain 40) was “S”. For the same molecule, the Drug sensibility profile ([2]; MRSA strain 41) was “S”, the Drug sensibility profile ([2]; MRSA strain 42) was “S” and the Drug sensibility profile ([2]; MRSA strain 43) was “S”. For the same molecule, the Drug sensibility profile ([2]; MRSA strain 44) was “S”, the Drug sensibility profile ([2]; MRSA strain 45) was “S” and the Drug sensibility profile ([2]; MRSA strain 46) was “S”. For the same molecule, the Drug sensibility profile ([2]; MRSA strain 48) was “S”, the Drug sensibility profile ([2]; MRSA strain 49) was “S” and the Drug sensibility profile ([2]; MRSA strain 50) was “S”. The Drug sensibility profile ([2]; MRSA strain 51) was “S”.
`CN(C)[C@@H]1C(O)=C(C(N)=O)C(=O)[C@@]2(O)C(O)=C3C(=O)c4c(O)cccc4[C@@](C)(O)[C@H]3C[C@@H]12` [TET, tetracycline] was tested, and the Drug sensibility profile ([2]; MRSA strain 1) was “R”, the Drug sensibility profile ([2]; MRSA strain 2) was “R” and the Drug sensibility profile ([2]; MRSA strain 3) was “S”. For the same molecule, the Drug sensibility profile ([2]; MRSA strain 4) was “S”, the Drug sensibility profile ([2]; MRSA strain 5) was “S” and the Drug sensibility profile ([2]; MRSA strain 6) was “S”. For the same molecule, the Drug sensibility profile ([2]; MRSA strain 7) was “R”, the Drug sensibility profile ([2]; MRSA strain 8) was “R” and the Drug sensibility profile ([2]; MRSA strain 9) was “R”. The Drug sensibility profile ([2]; MRSA strain 10) was “S”, the Drug sensibility profile ([2]; MRSA strain 12) was “R” and the Drug sensibility profile ([2]; MRSA strain 13) was “R”. For the same molecule, the Drug sensibility profile ([2]; MRSA strain 14) was “S”, the Drug sensibility profile ([2]; MRSA strain 15) was “R” and the Drug sensibility profile ([2]; MRSA strain 16) was “S”. For the same molecule, the Drug sensibility profile ([2]; MRSA strain 17) was “S”, the Drug sensibility profile ([2]; MRSA strain 18) was “S” and the Drug sensibility profile ([2]; MRSA strain 21) was “R”. The Drug sensibility profile ([2]; MRSA strain 23) was “S”, the Drug sensibility profile ([2]; MRSA strain 24) was “S” and the Drug sensibility profile ([2]; MRSA strain 25) was “S”. The Drug sensibility profile ([2]; MRSA strain 26) was “S S S S S S S”, the Drug sensibility profile ([2]; MRSA strain 27) was “R” and the Drug sensibility profile ([2]; MRSA strain 28) was “R”. For the same molecule, the Drug sensibility profile ([2]; MRSA strain 29) was “S”, the Drug sensibility profile ([2]; MRSA strain 30) was “S” and the Drug sensibility profile ([2]; MRSA strain 31) was “S”. For the same molecule, the Drug sensibility profile ([2]; MRSA strain 34) was “S”, the Drug sensibility profile ([2]; MRSA strain 35) was “S” and the Drug sensibility profile ([2]; MRSA strain 36) was “S S S S S S S”. For the same molecule, the Drug sensibility profile ([2]; MRSA strain 40) was “R”, the Drug sensibility profile ([2]; MRSA strain 41) was “R” and the Drug sensibility profile ([2]; MRSA strain 42) was “S”. The Drug sensibility profile ([2]; MRSA strain 43) was “S”, the Drug sensibility profile ([2]; MRSA strain 44) was “S” and the Drug sensibility profile ([2]; MRSA strain 45) was “I”. For the same molecule, the Drug sensibility profile ([2]; MRSA strain 46) was “S”, the Drug sensibility profile ([2]; MRSA strain 48) was “R” and the Drug sensibility profile ([2]; MRSA strain 49) was “R”. The Drug sensibility profile ([2]; MRSA strain 50) was “R” and the Drug sensibility profile ([2]; MRSA strain 51) was “S”.
With `Cn1nnc(-c2ccc(-c3ccc(N4C[C@H](CO)OC4=O)cc3F)cn2)n1` [Tedizolid] the Drug sensibility profile ([2]; MRSA strain 6) was “S”, the Drug sensibility profile ([2]; MRSA strain 7) was “S” and the Drug sensibility profile ([2]; MRSA strain 8) was “S”. The Drug sensibility profile ([2]; MRSA strain 9) was “S”, the Drug sensibility profile ([2]; MRSA strain 10) was “S” and the Drug sensibility profile ([2]; MRSA strain 12) was “S”. The Drug sensibility profile ([2]; MRSA strain 13) was “S”, the Drug sensibility profile ([2]; MRSA strain 14) was “S” and the Drug sensibility profile ([2]; MRSA strain 15) was “S”. The Drug sensibility profile ([2]; MRSA strain 16) was “S”, the Drug sensibility profile ([2]; MRSA strain 17) was “S” and the Drug sensibility profile ([2]; MRSA strain 18) was “S”. For the same molecule, the Drug sensibility profile ([2]; MRSA strain 21) was “S”, the Drug sensibility profile ([2]; MRSA strain 23) was “S” and the Drug sensibility profile ([2]; MRSA strain 24) was “S”. For the same molecule, the Drug sensibility profile ([2]; MRSA strain 25) was “S”, the Drug sensibility profile ([2]; MRSA strain 26) was “S” and the Drug sensibility profile ([2]; MRSA strain 27) was “S”. For the same molecule, the Drug sensibility profile ([2]; MRSA strain 28) was “S”, the Drug sensibility profile ([2]; MRSA strain 29) was “S” and the Drug sensibility profile ([2]; MRSA strain 36) was “S”. For the same molecule, the Drug sensibility profile ([2]; MRSA strain 41) was “S”, the Drug sensibility profile ([2]; MRSA strain 42) was “S” and the Drug sensibility profile ([2]; MRSA strain 44) was “S”. The Drug sensibility profile ([2]; MRSA strain 45) was “S” and the Drug sensibility profile ([2]; MRSA strain 51) was “S”.
In the case of `CCCCCCCCCCNCCN[C@@]1(C)C[C@H](O[C@H]2[C@H](Oc3c4cc5cc3Oc3ccc(cc3Cl)[C@@H](O)[C@@H](NC(=O)[C@@H](CC(C)C)NC)C(=O)N[C@@H](CC(N)=O)C(=O)N[C@H]5C(=O)N[C@H]3C(=O)N[C@H](C(=O)N[C@H](C(=O)O)c5cc(O)c(CNCP(=O)(O)O)c(O)c5-c5cc3ccc5O)[C@H](O)c3ccc(c(Cl)c3)O4)O[C@H](CO)[C@@H](O)[C@@H]2O)O[C@@H](C)[C@H]1O` [Telavancin], the Drug sensibility profile ([2]; MRSA strain 25) is reported as “S”, the Drug sensibility profile ([2]; MRSA strain 26) is reported as “S” and the Drug sensibility profile ([2]; MRSA strain 27) is reported as “S”. For the same molecule, the Drug sensibility profile ([2]; MRSA strain 28) was “S”, the Drug sensibility profile ([2]; MRSA strain 29) was “S” and the Drug sensibility profile ([2]; MRSA strain 36) was “S”. For the same molecule, the Drug sensibility profile ([2]; MRSA strain 41) was “S”, the Drug sensibility profile ([2]; MRSA strain 42) was “S” and the Drug sensibility profile ([2]; MRSA strain 44) was “S”. The Drug sensibility profile ([2]; MRSA strain 45) was “S” and the Drug sensibility profile ([2]; MRSA strain 51) was “S”.
`CN(C)c1cc(NC(=O)CNC(C)(C)C)c(O)c2c1C[C@H]1C[C@H]3[C@H](N(C)C)C(O)=C(C(N)=O)C(=O)[C@@]3(O)C(O)=C1C2=O` [Tigecycline] was tested, and the Drug sensibility profile ([2]; MRSA strain 1) was “S”, the Drug sensibility profile ([2]; MRSA strain 2) was “R” and the Drug sensibility profile ([2]; MRSA strain 3) was “S”. The Drug sensibility profile ([2]; MRSA strain 4) was “S”, the Drug sensibility profile ([2]; MRSA strain 5) was “S” and the Drug sensibility profile ([2]; MRSA strain 6) was “S”. For the same molecule, the Drug sensibility profile ([2]; MRSA strain 7) was “S”, the Drug sensibility profile ([2]; MRSA strain 8) was “R” and the Drug sensibility profile ([2]; MRSA strain 9) was “R”. The Drug sensibility profile ([2]; MRSA strain 10) was “S”, the Drug sensibility profile ([2]; MRSA strain 12) was “R” and the Drug sensibility profile ([2]; MRSA strain 13) was “R”. For the same molecule, the Drug sensibility profile ([2]; MRSA strain 14) was “S”, the Drug sensibility profile ([2]; MRSA strain 15) was “S” and the Drug sensibility profile ([2]; MRSA strain 16) was “S”. The Drug sensibility profile ([2]; MRSA strain 17) was “R”, the Drug sensibility profile ([2]; MRSA strain 18) was “S” and the Drug sensibility profile ([2]; MRSA strain 21) was “S”. The Drug sensibility profile ([2]; MRSA strain 23) was “S”, the Drug sensibility profile ([2]; MRSA strain 24) was “S” and the Drug sensibility profile ([2]; MRSA strain 25) was “S”. For the same molecule, the Drug sensibility profile ([2]; MRSA strain 26) was “S”, the Drug sensibility profile ([2]; MRSA strain 27) was “S” and the Drug sensibility profile ([2]; MRSA strain 28) was “S”. For the same molecule, the Drug sensibility profile ([2]; MRSA strain 29) was “S”, the Drug sensibility profile ([2]; MRSA strain 30) was “S” and the Drug sensibility profile ([2]; MRSA strain 31) was “S”. The Drug sensibility profile ([2]; MRSA strain 34) was “S”, the Drug sensibility profile ([2]; MRSA strain 35) was “S” and the Drug sensibility profile ([2]; MRSA strain 36) was “S”. For the same molecule, the Drug sensibility profile ([2]; MRSA strain 40) was “S”, the Drug sensibility profile ([2]; MRSA strain 41) was “S” and the Drug sensibility profile ([2]; MRSA strain 42) was “S”. The Drug sensibility profile ([2]; MRSA strain 43) was “S”, the Drug sensibility profile ([2]; MRSA strain 44) was “S” and the Drug sensibility profile ([2]; MRSA strain 45) was “S”. The Drug sensibility profile ([2]; MRSA strain 46) was “S”, the Drug sensibility profile ([2]; MRSA strain 48) was “S” and the Drug sensibility profile ([2]; MRSA strain 49) was “S”. For the same molecule, the Drug sensibility profile ([2]; MRSA strain 50) was “S” and the Drug sensibility profile ([2]; MRSA strain 51) was “S”.

Source: publication PMC11899342, “Novel Triazeneindole Antibiotics: Synthesis and Hit-to-Lead Optimization” (International Journal of Molecular Sciences, 2025)
